Values quoted from earlier work, collected in patent US6660287B1, “Prevention of spoilage of produce using acidified expanded amorphous aluminum silicate impregnated with chlorite” (Bio-Cide International, Inc., priority 1999, dated 2003).

Test system: mice

OCl [hypochlorite]
mutagenic potential (mouse, in vivo, po): weak positive effect

[O][Cl+][O-] [chlorine dioxide]
chromosomal aberrations or increased numbers of micronuclei in the bone marrow (subchronic and acute oral administration, mice (Meier et al.)): failed to induce any chromosomal aberrations or increased numbers of micronuclei
